Data: article PMC7725003, “Systematically Studying the Optimal Amino Acid Distribution Patterns of the Amphiphilic Structure by Using the Ultrashort Amphiphiles” (Frontiers in Microbiology, 2020)
Where no end group is shown, it is not given here.

Legend:
B. subtilis 63501 = type: cell-based, Bacillus subtilis; details: 63501, 24 h
Procedure, shortened: (§1)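 Bacteria were grown to mid-log phase and diluted in MHB to 0.5–1 × 10^6 CFU mL^–1. Serial peptide dilutions in 0.2% BSA were added at equal volume and plates incubated 24 h at 37°C. Growth inhibition of 95% at 492 nm defined the MIC.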

S. aureus 29213 [1] = assay: Salt sensitivity assay (MIC); type: cell-based, Staphylococcus aureus; details: for MIC, FeCl3: 4 μM FeCl3; for MIC, NH4Cl: 6 μM NH4Cl; for MIC, ZnCl2: 8 μM ZnCl2; for MIC, MgCl2: 1 mM MgCl2; for MIC, CaCl2: 2 mM CaCl2; for MIC, KCl: 4.5 mM KCl; for MIC, NaCl: 150 mM NaCl; for MIC, Control: no added salt, three independent assays
Procedure, shortened: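 Physiological salts (150 mM NaCl, 4.5 mM KCl, 6 μM NH4Cl, 8 μM ZnCl2, 1 mM MgCl2, 2mM CaCl2, 4 μM FeCl3) added to MHB. Bacteria at 0.5–1 × 10^6 CFU/mL exposed to serially diluted peptides for 24 h at 37°C. MIC read as lowest peptide concentration giving 95% growth inhibition by absorbance at 492 nm.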

E. coli UB1005 = type: cell-based, Escherichia coli; details: UB1005, 24 h
Procedure, shortened: as §1

E. coli O78 = type: cell-based, Escherichia coli; details: O78, 24 h
Procedure, shortened: as §1

E. coli 25922 = type: cell-based, Escherichia coli; details: 25922, 24 h
Procedure, shortened: as §1

E. faecalis 29212 = type: cell-based, Enterococcus faecalis; details: 29212, 24 h
Procedure, shortened: as §1

S. epidermidis 12228 = type: cell-based, Staphylococcus epidermidis; details: 12228, 24 h
Procedure, shortened: as §1

[2] = tested on: Listeria monocytogenes CGMCC 1.1075; type: cell-based; details: CGMCC 1.1075, 24 h
Procedure, shortened: as §1

Gram-positive bacteria [3] = details: geometric mean of MBCs, 7 Gram-positive strains (Table 2)
Gram-negative bacteria [4] = details: geometric mean of MBCs, 9 Gram-negative strains (Table 2)
E. coli K99 = details: for MIC: MHB, 24 h 37°C, 95% growth inhibition; for MBC: value in brackets, >99.9% of cells killed
Procedure: (§2) The antimicrobial activities of the peptides were measured using a method adapted from the National Committee for Clinical Laboratory Standards (NCCLS) with some modifications ([Chou et al., 2016]). The specific procedure for these assays has been previously described. In brief, the bacterial cells were grown to a mid-logarithmic phase and diluted in MHB to an ultimate concentration of 0.5–1 × 10^6 CFU mL^–1. Subsequently, the peptides were consecutively diluted in a 0.2% BSA solution and then added to a bacterial solution in a 96-well plate at identical volumes. After incubation for 24 h at 37°C, the MICs were determined to be the lowest peptide concentration that inhibited 95% of the bacterial growth by monitoring the absorbance at 492 nm using a microplate reader. Subsequently, 50 μL of each incubation mixture was further transferred to agar plates and incubated overnight. […] Every assay was reproduced more than 3 times.

E. coli K88 = details: for MIC: MHB, 24 h 37°C, 95% growth inhibition; for MBC: value in brackets, >99.9% of cells killed
Procedure: as §2

S. aureus 25923 = type: cell-based, Staphylococcus aureus; details: 25923, 24 h
Procedure, shortened: as §1

S. aureus 29213 [5] = type: cell-based, Staphylococcus aureus; details: 29213, 24 h
Procedure, shortened: as §1

E. coli ATCC 25922 = assay: Salt sensitivity assay (MIC); type: cell-based, Escherichia coli; details: for MIC, FeCl3: 4 μM FeCl3; for MIC, NH4Cl: 6 μM NH4Cl; for MIC, ZnCl2: 8 μM ZnCl2; for MIC, MgCl2: 1 mM MgCl2; for MIC, CaCl2: 2 mM CaCl2; for MIC, KCl: 4.5 mM KCl; for MIC, NaCl: 150 mM NaCl; for MIC, Control: no added salt, three independent assays
Procedure, shortened: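 Peptides diluted serially in 0.2% BSA solution were combined at identical volumes with mid-logarithmic E. coli ATCC 25922 in MHB (0.5–1 × 10^6 CFU mL^–1) in 96-well plates, with or without a physiological salt. Plates were incubated for 24 h at 37°C. MIC was the lowest concentration inhibiting 95% of growth, measured as absorbance at 492 nm on a microplate reader.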

S. typhimurium 7731 = type: cell-based, Salmonella typhimurium; details: 7731, 24 h
Procedure, shortened: as §1

S. typhimurium 14028 = type: cell-based, Salmonella typhimurium; details: 14028, 24 h
Procedure, shortened: as §1

[6] = tested on: all of the tested bacterial strains; assay: Geometric mean of MICs, all tested bacterial strains; type: cell-based; details: for GM, All: geometric mean of MICs across all tested strains; for TI, All: therapeutic index TI = MHC/GM MIC
Procedure, shortened: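 Per strain, MIC came from absorbance at 492 nm after 24 h at 37°C (≥95% inhibition), using mid-log inoculum of 0.5–1 × 10^6 CFU mL^–1 in MHB and peptide diluted in 0.2% BSA. MBC (>99.9% killed) came from overnight agar plating, and values are geometric means across strains.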

MRSA 43300 = type: cell-based, methicillin-resistant S. aureus; details: 43300, 24 h
Procedure, shortened: as §1

S. pullorum 7913 = type: cell-based, Salmonella pullorum; details: 7913, 24 h
Procedure, shortened: as §1

Gram-positive bacteria [7] = details: for GM MIC: geometric mean of MICs, 7 Gram-positive strains (Table 2); for TI, Gram-positive bacteria: therapeutic index TI = MHC/GM MIC
Procedure, shortened: (§3)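 MIC is the lowest peptide concentration giving 95% growth inhibition, read at 492 nm after 24 h incubation at 37°C. Peptides were serially diluted in 0.2% BSA and added to mid-logarithmic cells at 0.5–1 × 10^6 CFU mL^–1 in MHB, following a modified NCCLS method, with more than 3 repeats.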

Gram-negative bacteria [8] = details: for GM MIC: geometric mean of MICs, 9 Gram-negative strains (Table 2); for TI, Gram-negative bacteria: therapeutic index TI = MHC/GM MIC
Procedure, shortened: as §3

P. aeruginosa 27853 = type: cell-based, Pseudomonas aeruginosa; details: 27853, 24 h
Procedure, shortened: as §1

Work on LRRLRLRLL-NH2 [L3] yielded an MBC (B. subtilis 63501) of 16 µM, an MIC (B. subtilis 63501) of 8 µM and an MIC, FeCl3 (S. aureus 29213 [1]) greater than 64 µM. For the same substance, the MIC, NH4Cl (S. aureus 29213 [1]) was greater than 64 µM, the MIC, ZnCl2 (S. aureus 29213 [1]) was greater than 64 µM and the MIC, MgCl2 (S. aureus 29213 [1]) was greater than 64 µM. The MIC, CaCl2 (S. aureus 29213 [1]) was greater than 64 µM, the MIC, KCl (S. aureus 29213 [1]) was greater than 64 µM and the MIC, NaCl (S. aureus 29213 [1]) was greater than 64 µM. The MIC, Control (S. aureus 29213 [1]) was greater than 64 µM, the MBC (E. coli UB1005) was 32 µM and the MIC (E. coli UB1005) was 16 µM. The MBC (E. coli O78) was 32 µM, the MIC (E. coli O78) was 16 µM and the MBC (E. coli 25922) was 16 µM. For the same substance, the MIC (E. coli 25922) was 8 µM, the MIC (E. faecalis 29212) was greater than 64 µM and the MIC (S. epidermidis 12228) was greater than 64 µM. For the same substance, the MBC [2] was 32 µM, the MIC [2] was 16 µM and the “GM MBC” value (Gram-positive bacteria [3]) was 78.02 µM. The “GM MBC” value (Gram-negative bacteria [4]) was 37.33 µM, the MIC (E. coli K99) was 16 µM and the MBC (E. coli K99) was 32 µM. For the same substance, the MIC (E. coli K88) was 8 µM, the MBC (E. coli K88) was 16 µM and the MIC (S. aureus 25923) was greater than 64 µM. For the same substance, the MIC (S. aureus 29213 [5]) was greater than 64 µM, the MIC, FeCl3 (E. coli ATCC 25922) was 16 µM and the MIC, NH4Cl (E. coli ATCC 25922) was 16 µM. The MIC, ZnCl2 (E. coli ATCC 25922) was 16 µM, the MIC, MgCl2 (E. coli ATCC 25922) was 32 µM and the MIC, CaCl2 (E. coli ATCC 25922) was 32 µM. For the same substance, the MIC, KCl (E. coli ATCC 25922) was 8 µM, the MIC, NaCl (E. coli ATCC 25922) was 32 µM and the MIC, Control (E. coli ATCC 25922) was 8 µM. The MBC (S. typhimurium 7731) was 64 µM, the MIC (S. typhimurium 7731) was 32 µM and the MBC (S. typhimurium 14028) was 128 µM. The MIC (S. typhimurium 14028) was 64 µM, the “GM, All” value [6] was 32.00 µM and the “TI, All” value [6] was 8.00. It also gave an MIC (MRSA 43300) greater than 64 µM, an MBC (S. pullorum 7913) of 16 µM and an MIC (S. pullorum 7913) of 8 µM. For the same substance, the “GM MIC” value (Gram-positive bacteria [7]) was 64.00 µM, the “TI, Gram-positive bacteria” value (Gram-positive bacteria [7]) was 4.00 and the “GM MIC” value (Gram-negative bacteria [8]) was 18.66 µM. The “TI, Gram-negative bacteria” value (Gram-negative bacteria [8]) was 13.72, the MBC (P. aeruginosa 27853) was 128 µM and the MIC (P. aeruginosa 27853) was 64 µM.
Substance LRRRLLLLR-NH2 [L6] has an MBC (B. subtilis 63501) of 64 µM, an MIC (B. subtilis 63501) of 32 µM and an MIC, FeCl3 (S. aureus 29213 [1]) greater than 64 µM. For the same substance, the MIC, NH4Cl (S. aureus 29213 [1]) was greater than 64 µM, the MIC, ZnCl2 (S. aureus 29213 [1]) was greater than 64 µM and the MIC, MgCl2 (S. aureus 29213 [1]) was greater than 64 µM. The MIC, CaCl2 (S. aureus 29213 [1]) was greater than 64 µM, the MIC, KCl (S. aureus 29213 [1]) was greater than 64 µM and the MIC, NaCl (S. aureus 29213 [1]) was greater than 64 µM. For the same substance, the MIC, Control (S. aureus 29213 [1]) was greater than 64 µM, the MIC (E. coli UB1005) was greater than 64 µM and the MBC (E. coli O78) was 128 µM. The MIC (E. coli O78) was 64 µM, the MIC (E. coli 25922) was greater than 64 µM and the MIC (E. faecalis 29212) was greater than 64 µM. For the same substance, the MIC (S. epidermidis 12228) was greater than 64 µM, the MIC [2] was greater than 64 µM and the “GM MBC” value (Gram-positive bacteria [3]) was 115.93 µM. The “GM MBC” value (Gram-negative bacteria [4]) was 128.00 µM, the MIC (E. coli K99) was 64 µM and the MBC (E. coli K99) was 128 µM. The MIC (E. coli K88) was 64 µM, the MBC (E. coli K88) was 128 µM and the MIC (S. aureus 25923) was greater than 64 µM. The MIC (S. aureus 29213 [5]) was greater than 64 µM, the MIC, FeCl3 (E. coli ATCC 25922) was greater than 64 µM and the MIC, NH4Cl (E. coli ATCC 25922) was greater than 64 µM. It also gave an MIC, ZnCl2 (E. coli ATCC 25922) greater than 64 µM, an MIC, MgCl2 (E. coli ATCC 25922) greater than 64 µM and an MIC, CaCl2 (E. coli ATCC 25922) greater than 64 µM. For the same substance, the MIC, KCl (E. coli ATCC 25922) was greater than 64 µM, the MIC, NaCl (E. coli ATCC 25922) was greater than 64 µM and the MIC, Control (E. coli ATCC 25922) was greater than 64 µM. For the same substance, the MIC (S. typhimurium 7731) was greater than 64 µM, the MIC (S. typhimurium 14028) was greater than 64 µM and the “GM, All” value [6] was 103.07 µM. The “TI, All” value [6] was 2.48, the MIC (MRSA 43300) was greater than 64 µM and the MIC (S. pullorum 7913) was greater than 64 µM. The “GM MIC” value (Gram-positive bacteria [7]) was 105.00 µM, the “TI, Gram-positive bacteria” value (Gram-positive bacteria [7]) was 2.44 and the “GM MIC” value (Gram-negative bacteria [8]) was 101.59 µM. The “TI, Gram-negative bacteria” value (Gram-negative bacteria [8]) was 2.52 and the MIC (P. aeruginosa 27853) was greater than 64 µM.
